Test results published in ChEMBL document CHEMBL3804756 (J Med Chem, 2016).

Experiments:
Histamine H2 receptor [1] = molecular target: T1, Histamine H2 receptor (Homo sapiens, UniProt P25021); experiment: Antagonist activity at human histamine H2 receptor expressed in sf9 cell membrane co-expressing Gsalphas assessed as inhibition of histamine-induced [35S]GTPgammaS binding incubated for 90 mins; assay type: functional
Histamine H2 receptor [2] = molecular target: T1, Histamine H2 receptor; experiment: Intrinsic activity at human histamine H2 receptor expressed in sf9 cell membrane co-expressing Gsalphas at 10 uM incubated for 90 mins by [35S]GTPgammaS binding assay relative to histamine; assay type: functional
Histamine H3 receptor [3] = molecular target: T2, Histamine H3 receptor (Homo sapiens, UniProt Q9Y5N1); experiment: Intrinsic activity at human histamine H3 receptor expressed in sf9 cell membrane co-expressing mammalian Galphai2 and Gbeta1gamma2 at 10 uM incubated for 90 mins by [35S]GTPgammaS binding assay relative to histamine; assay type: functional
Histamine H1 receptor = Histamine H1 receptor (Homo sapiens, UniProt P35367); experiment: Displacement of [3H]mepyramine from human histamine H1 receptor expressed in sf9 cell membrane co-expressing RGS4 incubated for 60 mins by liquid scintillation counting method
Histamine H3 receptor [4] = molecular target: T2, Histamine H3 receptor; experiment: Antagonist activity at human histamine H3 receptor expressed in sf9 cell membrane co-expressing mammalian Galphai2 and Gbeta1gamma2 assessed as inhibition of histamine-induced [35S]GTPgammaS binding incubated for 90 mins; assay type: functional
Histamine H3 receptor [5] = molecular target: T2, Histamine H3 receptor; experiment: Agonist activity at human histamine H3 receptor expressed in sf9 cell membrane co-expressing mammalian Galphai2 and Gbeta1gamma2 incubated for 90 mins by [35S]GTPgammaS binding assay; assay type: functional
Histamine H4 receptor [6] = molecular target: T3, Histamine H4 receptor (Homo sapiens, UniProt Q9H3N8); experiment: Agonist activity at human histamine H4 receptor expressed in sf9 cell membrane co-expressing mammalian Galphai2 and Gbeta1gamma2 incubated for 90 mins by [35S]GTPgammaS binding assay; assay type: functional
Histamine H3 receptor [7] = molecular target: T2, Histamine H3 receptor; experiment: Displacement of [3H]N-alpha-methylhistamine from human histamine H3 receptor expressed in sf9 cell membrane co-expressing mammalian Galphai2 and Gbeta1gamma2 incubated for 60 mins by liquid scintillation counting method
Histamine H4 receptor [8] = molecular target: T3, Histamine H4 receptor; experiment: Displacement of [3H]UR-PI294 from human histamine H4 receptor expressed in sf9 cell membrane co-expressing mammalian Galphai2 and Gbeta1gamma2 incubated for 60 mins by liquid scintillation counting method

T2 sequence (Q9Y5N1 whole entry): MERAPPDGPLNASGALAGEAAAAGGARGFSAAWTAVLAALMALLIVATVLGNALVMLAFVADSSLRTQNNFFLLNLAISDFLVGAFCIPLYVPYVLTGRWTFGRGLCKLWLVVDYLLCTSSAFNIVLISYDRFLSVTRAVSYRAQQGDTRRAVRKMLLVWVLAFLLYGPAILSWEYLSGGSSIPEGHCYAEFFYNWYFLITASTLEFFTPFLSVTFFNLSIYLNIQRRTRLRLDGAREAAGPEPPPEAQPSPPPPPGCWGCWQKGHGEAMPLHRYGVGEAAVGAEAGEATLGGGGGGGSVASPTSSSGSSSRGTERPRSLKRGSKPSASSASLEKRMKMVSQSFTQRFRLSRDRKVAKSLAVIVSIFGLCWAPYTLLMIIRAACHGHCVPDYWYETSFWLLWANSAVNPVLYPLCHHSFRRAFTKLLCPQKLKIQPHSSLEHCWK
T3 sequence (Q9H3N8 whole entry): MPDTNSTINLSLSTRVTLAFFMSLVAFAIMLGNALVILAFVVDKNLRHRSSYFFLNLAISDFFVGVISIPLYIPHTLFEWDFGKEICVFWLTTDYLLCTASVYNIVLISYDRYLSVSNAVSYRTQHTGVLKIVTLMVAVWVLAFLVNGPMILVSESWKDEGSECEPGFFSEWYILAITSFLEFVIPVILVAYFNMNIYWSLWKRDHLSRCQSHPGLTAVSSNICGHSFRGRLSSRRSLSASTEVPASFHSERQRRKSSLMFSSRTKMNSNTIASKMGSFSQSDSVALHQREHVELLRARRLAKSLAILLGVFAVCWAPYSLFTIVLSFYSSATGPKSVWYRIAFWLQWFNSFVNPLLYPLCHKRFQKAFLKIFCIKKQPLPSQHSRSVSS
T1 sequence (P25021 whole entry): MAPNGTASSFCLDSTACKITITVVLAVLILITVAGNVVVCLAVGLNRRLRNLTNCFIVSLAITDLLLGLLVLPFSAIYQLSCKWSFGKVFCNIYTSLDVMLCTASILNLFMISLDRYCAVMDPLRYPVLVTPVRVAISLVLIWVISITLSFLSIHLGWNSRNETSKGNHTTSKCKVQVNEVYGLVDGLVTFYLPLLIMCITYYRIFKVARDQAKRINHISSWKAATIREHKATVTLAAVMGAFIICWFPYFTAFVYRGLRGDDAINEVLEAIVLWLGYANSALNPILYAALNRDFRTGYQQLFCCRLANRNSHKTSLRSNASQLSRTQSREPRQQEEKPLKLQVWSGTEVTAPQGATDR
Chain of Histamine H1 receptor (P35367 whole entry): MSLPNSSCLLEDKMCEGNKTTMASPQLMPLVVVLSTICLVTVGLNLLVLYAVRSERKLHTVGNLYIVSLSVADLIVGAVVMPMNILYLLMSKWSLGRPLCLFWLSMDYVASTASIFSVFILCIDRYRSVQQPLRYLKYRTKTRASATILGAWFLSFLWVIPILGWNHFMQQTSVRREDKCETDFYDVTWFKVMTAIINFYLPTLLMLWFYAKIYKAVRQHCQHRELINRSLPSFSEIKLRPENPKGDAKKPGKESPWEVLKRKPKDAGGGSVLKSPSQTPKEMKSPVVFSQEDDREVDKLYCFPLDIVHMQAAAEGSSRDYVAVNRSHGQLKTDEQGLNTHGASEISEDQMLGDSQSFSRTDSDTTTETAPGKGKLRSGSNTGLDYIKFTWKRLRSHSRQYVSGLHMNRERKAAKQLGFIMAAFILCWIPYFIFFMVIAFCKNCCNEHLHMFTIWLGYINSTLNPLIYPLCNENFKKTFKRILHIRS

Structure (SMILES)	Kb (Histamine H2 receptor [1]) [nM]	Intrinsic activity (Histamine H2 receptor [2])	Intrinsic activity (Histamine H3 receptor [3])	Ki (Histamine H1 receptor) [nM]	Kb (Histamine H3 receptor [4]) [nM]	EC50 (Histamine H3 receptor [5]) [nM]	EC50 (Histamine H4 receptor [6]) [nM]	Ki (Histamine H3 receptor [7]) [nM]	Ki (Histamine H4 receptor [8]) [nM]
CN/C(=N\C#N)NC[C@H]1CC[C@H](c2c[nH]cn2)C1 (racemic)	> 10000	0	-0.46						
N#C/N=C(/NCCNc1ccccc1)NC[C@H]1CC[C@H](c2c[nH]cn2)C1 (racemic)	> 10000	0	0	> 10000	408				
N#C/N=C(\NC[C@@H]1CC[C@H](c2c[nH]cn2)C1)NC1CC1 (racemic)	> 10000	0	0.28	> 10000		1530	245		
N#C/N=C(/NCCOc1ccccc1)NC[C@@H]1CC[C@H](c2c[nH]cn2)C1 (racemic)	> 10000	0	0	> 10000	328				
CCC(=O)/N=C(\N)NCCCc1c[nH]cn1		0.8	0.4						
N#C/N=C(/NCCOc1ccccc1)NC[C@H]1CC[C@H](c2c[nH]cn2)C1 (racemic)	> 10000	0	0	> 10000	540		524		
N#C/N=C(/NCCCCc1c[nH]cn1)NCCSc1ccccc1		0	-0.52			720			
Cc1nc[nH]c1CCN [4-METHYLHISTAMINE]		1	0.7			12400			
N#C/N=C(/NCCSc1ccccc1)NC[C@@H]1CC[C@H](c2c[nH]cn2)C1	> 10000	0	-0.21		718				
CC(C)CN/C(=N/C#N)NC[C@@H]1CC[C@H](c2c[nH]cn2)C1 (racemic)	> 10000	0	0.5	8350		858	202		
N#C/N=C(/NCCCc1ccccc1)NC[C@H]1CC[C@H](c2c[nH]cn2)C1 (racemic)	> 10000	0	-0.19	> 10000	325		125		
N#C/N=C(/NCCSc1ccccc1)NC[C@H]1CC[C@H](c2c[nH]cn2)C1 (racemic)				6080			14	1230	99
N#C/N=C(/NCCSc1ccccc1)NC[C@@H]1CC[C@H](c2c[nH]cn2)C1 (racemic)				3800			129	1350	250
CC(C)CN/C(=N/C#N)NC[C@H]1CC[C@H](c2c[nH]cn2)C1 (racemic)	> 10000	0	0.54	8750		578	15		
N#C/N=C(/NCCCc1ccccc1)NC[C@@H]1CC[C@H](c2c[nH]cn2)C1 (racemic)	> 10000	0	0	9350	70		372		
N#C/N=C(/NCCSc1ccccc1)N[C@H]1CC[C@H](c2c[nH]cn2)CC1					180				
N#C/N=C(/NCCNc1ccccc1)NC[C@@H]1CC[C@H](c2c[nH]cn2)C1 (racemic)	> 10000	0	0	> 10000	402				
CN/C(=N\C#N)NC[C@@H]1CC[C@H](c2c[nH]cn2)C1	> 10000	0	0.61						
CN/C(=N\C#N)NC[C@@H]1CC[C@H](c2c[nH]cn2)C1 (racemic)	> 10000	0	0.51						
N#C/N=C(/NCCSc1ccccc1)N[C@H]1CC[C@@H](c2c[nH]cn2)CC1					1900		110		
CN1CCN(C(=O)c2cc3cc(Cl)ccc3[nH]2)CC1			-0.56						
S=C(NC1CCCCC1)N1CCC(c2cnc[nH]2)CC1			-0.59						
